# Test: recombinant UMI read abundance after kanamycin selection (control-corrected) (log10(CPM+1)); higher = more efficient recombination; extreme values may be limits of the assay; sequences stand for … in AGTGCAGAGAAAATCGGCCAGTTTTCTCTGCCTGCAGTCCGCATGCCGTGGGACCCCTTGGGTTCTAACCTGTTGCCTAGATTTATGCAGCGGACTGCCTTTCTCCCAAAGTGATAAACCGG…AGGTTGGTTTCACT; site = the 11-nt donor
# Procedure, shortened: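 Pooled Escherichia coli screen of donor and donor-binding-loop pairs for the IS621 bridge recombinase. Each pair sits with a 12-nt UMI on a plasmid carrying a promoterless kanamycin gene. The library was co-electroporated with a target plasmid encoding a fixed target and T7-inducible recombinase, then plated with IPTG (0.07 mM) plus kanamycin, or unselected, each in two replicates. Recombinant UMIs were PCR-amplified across the donor–target junction and sequenced. Counts became CPM, averaged over replicates, scaled by control-derived factors and reported as log10(CPM+1).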
row,Sequence,recombinant UMI read abundance (log10)
1,AGCCTATCATGGACCGGTTTTCCCGGTAATCCGTATTTGAC (site AGCCTGTCTGT),0
2,AGCCTATCATGGACCGGTTTTCCCGGTAATCCGTATTTGAC (site AGCCTTTCTGT),0
3,AGCCTTTCATGGACCGGTTTTCCCGGTAATCCGTATTTGAT (site AGCCTTTCTAT),0
4,AGCCTTTCATGGACCGGTTTTCCCGGTAATCCGTATTTGAT (site AGCCTTTCTCT),0
5,AGCCTTTCATGGACCGGTTTTCCCGGTAATCCGTATTTGAT (site AGCCTTTCTGT),0
6,AGCCTTTCATGGACCGGTTTTCCCGGTAATCCGTATTTGAT (site AGCCTTTCTTT),0
7,AGCGCGACATGGACCGGTTTTCCCGGTAATCCGTATTTGTG (site AGCGCGACTCA),0.829
8,AGCGCTCCATGGACCGGTTTTCCCGGTAATCCGTATTTGCC (site AGCGCTCCTGG),0
9,AGCGGCTCATGGACCGGTTTTCCCGGTAATCCGTATTTGGG (site AGCGGCTCTCC),0.204
10,AGCTAAGCATGGACCGGTTTTCCCGGTAATCCGTATTTGGG (site AGCTAAGCTCC),0.00725
11,AGCTAAGCATGGACCGGTTTTCCCGGTAATCCGTATTTGGG (site AGCTCAGCTCC),0.0056
12,AGCTAAGCATGGACCGGTTTTCCCGGTAATCCGTATTTGGG (site AGCTGAGCTCC),0.0394
13,AGCTAAGCATGGACCGGTTTTCCCGGTAATCCGTATTTGGG (site AGCTTAGCTCC),0.117
14,AGCTACGCATGGACCGGTTTTCCCGGTAATCCGTATTTGAA (site AGCTACGCTTT),1.7
15,AGCTAGCCATGGACCGGTTTTCCCGGTAATCCGTATTTGGA (site AGCTAGCCTTC),0.00495
16,AGCTAGGCATGGACCGGTTTTCCCGGTAATCCGTATTTGGT (site AGCTAGGCTAC),0.659
17,AGCTAGGCATGGACCGGTTTTCCCGGTAATCCGTATTTGGT (site CGCTAGGCTAC),0.00222
18,AGCTAGGCATGGACCGGTTTTCCCGGTAATCCGTATTTGGT (site GGCTAGGCTAC),0.0154
19,AGCTAGGCATGGACCGGTTTTCCCGGTAATCCGTATTTGGT (site TGCTAGGCTAC),0.0219
20,AGCTCACCATGGACCGGTTTTCCCGGTAATCCGTATTTGGG (site AGCTCAACTCC),0.0175
21,AGCTCACCATGGACCGGTTTTCCCGGTAATCCGTATTTGGG (site AGCTCACCTCC),0.0182
22,AGCTCACCATGGACCGGTTTTCCCGGTAATCCGTATTTGGG (site AGCTCAGCTCC),0.0165
23,AGCTCACCATGGACCGGTTTTCCCGGTAATCCGTATTTGGG (site AGCTCATCTCC),0
24,AGCTCAGCATGGACCGGTTTTCCCGGTAATCCGTATTTGAG (site AGCTCAGCTCA),0.0132
25,AGCTCAGCATGGACCGGTTTTCCCGGTAATCCGTATTTGAG (site AGCTCAGCTCC),0.026

row,Sequence,recombinant UMI read abundance (log10)
1,AGCTCAGCATGGACCGGTTTTCCCGGTAATCCGTATTTGAG (site AGCTCAGCTCG),0
2,AGCTCAGCATGGACCGGTTTTCCCGGTAATCCGTATTTGAG (site AGCTCAGCTCT),1.33
3,AGCTCAGCATGGACCGGTTTTCCCGGTAATCCGTATTTGGA (site AGCTCAGCTAC),0.00904
4,AGCTCAGCATGGACCGGTTTTCCCGGTAATCCGTATTTGGA (site AGCTCAGCTCC),0.264
5,AGCTCAGCATGGACCGGTTTTCCCGGTAATCCGTATTTGGA (site AGCTCAGCTGC),0
6,AGCTCAGCATGGACCGGTTTTCCCGGTAATCCGTATTTGGA (site AGCTCAGCTTC),1.03
7,AGCTCAGCATGGACCGGTTTTCCCGGTAATCCGTATTTGTG (site AGCTCAGCTCA),0.506
8,AGCTCAGCATGGACCGGTTTTCCCGGTAATCCGTATTTGTG (site AGCTCAGCTCC),0.00732
9,AGCTCAGCATGGACCGGTTTTCCCGGTAATCCGTATTTGTG (site AGCTCAGCTCG),0
10,AGCTCAGCATGGACCGGTTTTCCCGGTAATCCGTATTTGTG (site AGCTCAGCTCT),0.362
11,AGCTCGACATGGACCGGTTTTCCCGGTAATCCGTATTTGGC (site AGCTCGACTGC),1.31
12,AGCTCTGCATGGACCGGTTTTCCCGGTAATCCGTATTTGGG (site AGCTCAGCTCC),0.0199
13,AGCTCTGCATGGACCGGTTTTCCCGGTAATCCGTATTTGGG (site AGCTCCGCTCC),0.0101
14,AGCTCTGCATGGACCGGTTTTCCCGGTAATCCGTATTTGGG (site AGCTCGGCTCC),0
15,AGCTCTGCATGGACCGGTTTTCCCGGTAATCCGTATTTGGG (site AGCTCTGCTCC),0.25
16,AGCTTAGCATGGACCGGTTTTCCCGGTAATCCGTATTTGTT (site AGCATAGCTAA),0.00999
17,AGCTTAGCATGGACCGGTTTTCCCGGTAATCCGTATTTGTT (site AGCCTAGCTAA),0.261
18,AGCTTAGCATGGACCGGTTTTCCCGGTAATCCGTATTTGTT (site AGCGTAGCTAA),0.0147
19,AGCTTAGCATGGACCGGTTTTCCCGGTAATCCGTATTTGTT (site AGCTTAGCTAA),0.0106
20,AGCTTCCCATGGACCGGTTTTCCCGGTAATCCGTATTTGGG (site AGCTTCCCTCC),0.0229
21,AGCTTGCCATGGACCGGTTTTCCCGGTAATCCGTATTTGAT (site AGCTTGCCTAT),0.0115
22,AGGAAGACATGGACCGGTTTTCCCGGTAATCCGTATTTGAC (site AGGAAGACTGT),2.64
23,AGGAAGACATGGACCGGTTTTCCCGGTAATCCGTATTTGAC (site AGGAAGACTTG),0.571
24,AGGAAGACATGGACCGGTTTTCCCGGTAATCCGTATTTGCC (site AGGAAGACTAG),0.42
25,AGGAAGACATGGACCGGTTTTCCCGGTAATCCGTATTTGCC (site AGGAAGACTCG),0.723

row,Sequence,recombinant UMI read abundance (log10)
1,AGGAAGACATGGACCGGTTTTCCCGGTAATCCGTATTTGCC (site AGGAAGACTGG),1.84
2,AGGAAGACATGGACCGGTTTTCCCGGTAATCCGTATTTGCC (site AGGAAGACTTG),1.8
3,AGGAAGACATGGACCGGTTTTCCCGGTAATCCGTATTTGGT (site AGGAAGACTAC),2.1
4,AGGAAGACATGGACCGGTTTTCCCGGTAATCCGTATTTGGT (site AGGAAGACTTG),0
5,AGGAAGCCATGGACCGGTTTTCCCGGTAATCCGTATTTGCC (site AGGAAGACTTG),0
6,AGGAAGCCATGGACCGGTTTTCCCGGTAATCCGTATTTGCC (site AGGAAGCCTGG),0
7,AGGAATACATGGACCGGTTTTCCCGGTAATCCGTATTTGCA (site AGGAAAACTTG),0.656
8,AGGAATACATGGACCGGTTTTCCCGGTAATCCGTATTTGCA (site AGGAACACTTG),1.48
9,AGGAATACATGGACCGGTTTTCCCGGTAATCCGTATTTGCA (site AGGAAGACTTG),0.151
10,AGGAATACATGGACCGGTTTTCCCGGTAATCCGTATTTGCA (site AGGAATACTTG),2.11
11,AGGAATACATGGACCGGTTTTCCCGGTAATCCGTATTTGGA (site AGGAAGACTTG),0.341
12,AGGAATACATGGACCGGTTTTCCCGGTAATCCGTATTTGGA (site AGGAATACTTC),1.69
13,AGGAATACATGGACCGGTTTTCCCGGTAATCCGTATTTGGG (site AGGAATACTCC),0.394
14,AGGACAACATGGACCGGTTTTCCCGGTAATCCGTATTTGAC (site AGGACAACTGT),2.26
15,AGGACAACATGGACCGGTTTTCCCGGTAATCCGTATTTGAC (site AGGACCACTGT),0
16,AGGACAACATGGACCGGTTTTCCCGGTAATCCGTATTTGAC (site AGGACGACTGT),0
17,AGGACAACATGGACCGGTTTTCCCGGTAATCCGTATTTGAC (site AGGACTACTGT),0
18,AGGACGACATGGACCGGTTTTCCCGGTAATCCGTATTTGAC (site AGGACAACTGT),2.09
19,AGGACGACATGGACCGGTTTTCCCGGTAATCCGTATTTGAC (site AGGACCACTGT),0.378
20,AGGACGACATGGACCGGTTTTCCCGGTAATCCGTATTTGAC (site AGGACGACTGT),3.14
21,AGGACGACATGGACCGGTTTTCCCGGTAATCCGTATTTGAC (site AGGACTACTGT),0
22,AGGACGACATGGACCGGTTTTCCCGGTAATCCGTATTTGCT (site AGGAAGACTTG),0
23,AGGACGACATGGACCGGTTTTCCCGGTAATCCGTATTTGCT (site AGGACGACTAG),2.52
24,AGGACTACATGGACCGGTTTTCCCGGTAATCCGTATTTGAA (site AGGACTACTAT),1.41
25,AGGACTACATGGACCGGTTTTCCCGGTAATCCGTATTTGAA (site AGGACTACTCT),0.127

# Reference: the supplement of paper PMC11208160
